Assays:
MRSA biofilm = assay: Biofilm kill in protein-rich (FBS) environment (Example 3); format: cell-based, Staphylococcus aureus; conditions: for Log Reduction in Organism Count: MRSA
Procedure: Chlorine dioxide efficacy against biofilm in protein-rich environment A series of experiments were conducted to determine the effect of FBS on the kill of PA. MRSA and mixture PA/MRSA biofilms. Biofilms were grown as described in Example 1, Disks were immersed in 25 ml of FBS solution at double the target FBS concentration, and to that was added 25 ml of chlorine dioxide solution at double the target chlorine dioxide concentration. After the desired contact time, disks were removed from the treatment solutions, neutralized, and plated as described above.
Dosage is given both as the nominal dose based upon the initial chlorine dioxide concentration, and the actual dosage as estimated from the initial chlorine dioxide concentration and the decay relationships described above.
Columns 3-6 are measured data; columns 7-11 are calculated data. For K2 having a positive sign (such as Samples 20-21), it was assumed that there was insufficient FBS present to cause a material loss of chlorine dioxide. Therefore, for such samples, it was assumed that chlorine dioxide was unchanged over the time of the experiment FIG. 4 is a graph of the results.

total bacteria in wounds = assay: Pig infected wound model, delivery methods (Example 4); format: in vivo; conditions: Day 2, 400 ppm chlorine dioxide over two hours, versus moist controls
From the text: (§1) The test animal was a pig (n=1). Pigs are commonly used as models for wound healing in part because pig skin shares many characteristics with human skin. The porcine model is considered to be an excellent tool for the evaluation of candidate agents intended for use in human wounds.
(§2) On Day 0, the pig was anesthetized and sixteen […] full-thickness wounds (eight per side) were created using a custom designed 2-cm trephine. Each wound was 2-cm in diameter. An epinephrine solution (1:10,000 dilution) was applied to the wounds on gauze sponges until hemostasis was complete (approximately 10 minutes). Each wound was then infected with a bacterial inoculum.
(§3) Three different bacteria, Pseudomonas aeruginosa, Fusobacterium sp., and coagulase-negative Staphylococci (CNS), were cultured and used to prepare inoculums for the wounds. On the morning of surgery, the bacterial cultures were washed with sterile saline and resuspended in saline to a final density of approximately 10^7 CFU/mL. This bacterial suspension was used to inoculate each wound.
(§4) Wounds were dressed with sterile Telfa gauze, and the infections allowed to mature to establish a bacterial biofilm condition. Telfa dressings were moistened with saline: the excess saline was removed by squeezing the Telfa dressings. The dressing was then secured in place with Transpore tape (3M, St. Paul, Minn.), As a secondary dressing, a blue absorbent pad was used to cover all of the wounds. The absorbent layer of the blue pad was placed against the skin for the first few days. If wounds looked too dry, the blue pad was changed with the occlusive side against the skin. A layer of a layer of elastic bandage was wrapped over the blue pad to prevent movement of the dressings underneath. All wound dressing were changed on Day 1.
(§5) On Day 2, wounds were treated with a chlorine dioxide composition using different delivery methods. In brief, wounds A2-A4 were treated with continuous irrigation. Treatment for wounds B2-B4 and C2-C4 was multiple, substantially contiguous episodes of contact with a substantially non-cytotoxic chlorine dioxide gel composition. Wounds D2-D4 were treated with intermittent irrigation using a manual irrigation device. A1, B1 and D1 were controls and were not treated with chlorine dioxide. C1 was manually treated with a chlorine dioxide solution.
(§6) Wounds A2-A4: Each wound was individually covered with an irrigation device, each having an inlet, port to supply a chlorine dioxide solution and an outlet port for egress of the chlorine, dioxide solution. […]
(§7) The pump was activated to achieve an initial flow rate of approximately 80-82 ml mm through each of the three irrigation chambers. Chlorine dioxide concentrations were measured at the outlets using a UV spectrophotometer. […]

Pseudomonas in wounds = assay: as above; format: in vivo; conditions: Day 2, 400 ppm chlorine dioxide over two hours, versus moist controls
From the text: as §1, §2, §3, §4, §5, §6, §7

[1] = test system: coagulase-negative Staphylococci in wounds; assay: as above; format: in vivo
From the text: as §1, §2, §3, §4, §5, §6, §7

mixed PA/MRSA biofilm = assay: Biofilm kill on ceramic disks, clean system (Example 1); format: cell-based, Pseudomonas aeruginosa and Staphylococcus aureus; conditions: for Log Reduction in Organism Count: MRSA + PA, total bacteria
Procedure: A series of experiments were conducted to estimate the dosage of chlorine dioxide needed to kill bacterial biofilms consisting of Pseudomonas acruginosa (PA), methicillin resistant Staphylococcus aureus (MRSA), or a combination of both.
Bacterial biofilms were grown for between 7 and 10 days on non-porous ceramic disks in a spinning disk biofilm reactor. The reactors were inoculated with PA, MRSA, or a mixture of MRSA and PA bacteria to produce PA, MRSA, or mixed PA/MRSA biofilms respectively.
Chlorine dioxide solutions were produced at different nominal concentrations using ASEPTROL S-Tab10 tablets, and the exact concentrations were then measured using a Hach Model 2400 UV/Vis spectrophotometer in accordance with the manufacturer's instructions. Pairs of biofilm-containing disks were immersed for different times in solutions of different chlorine dioxide concentrations, neutralized with dilute sodium thiosul fate solution, and then plated to determine the number of surviving bacteria on each disk. Two untreated disks were also exposed to neutralizing solution and plated to determine the starting bacterial counts. In all tests, the baseline bacterial counts were in the range of 10^7 to 10^7.5 colony-forming units per disk (cfu/disk). A one log reduction refers to reducing the cfu/disk by one order of magnitude, e.g., a reduction from 10^7.1 cfu/disk to 10^6.1 cfu/disk. Accordingly, a substantially complete kill is achieved in the example if the log reduction of bacteria is about 7 to 7.5.
The results are presented in terms of log reduction of the different bacterial organisms. In the case of mixed PA/MRSA biofilms, results are given as total bacteria.

In the case of `[O][Cl+][O-]` [ClO2, chlorine dioxide], the “corrected dose rate resulting in complete kill” value (MRSA biofilm; MRSA biofilm, with FBS) is reported as no less than 2000 ppm-rain, the “Log Reduction in Organism Count” value (MRSA biofilm; Sample 22, FBS 131 mg/mg ClO2, 15.0 min, initial 191 ppm, nominal 2865, corrected 2236 ppm-min) is reported as 4.7 log and the “Log Reduction in Organism Count” value (MRSA biofilm; Sample 23, FBS 131 mg/mg ClO2, 40.0 min, initial 191 ppm, nominal 7640, corrected 5559 ppm-min) is reported as 4.7 log. The “Log Reduction in Organism Count” value (MRSA biofilm; Sample 24, FBS 104 mg/mg ClO2, 15.0 min, initial 240 ppm, nominal and corrected 3600 ppm-min) was 4.7 log, the “Log Reduction in Organism Count” value (MRSA biofilm; Sample 25, FBS 104 mg/mg ClO2, 30.0 min, initial 240 ppm, nominal and corrected 7200 ppm-min) was 4.7 log and the “Log Reduction in Organism Count” value (MRSA biofilm; Sample 26, FBS 104 mg/mg ClO2, 60.0 min, initial 240 ppm, nominal and corrected 14400 ppm-min) was 4.7 log. For the same compound, the total bacteria reduction (total bacteria in wounds) was 1-2 logs, the “reduction of Pseudomonas” value (Pseudomonas in wounds) was no less than 3 logs and the “levels of Staphylococcus aureus” value ([1]; pig wounds, improved irrigation methods and gel formulation) was “moderately lowered”. For the same compound, the “reduction of coagulase-negative Staph” value ([1]; pig, Day 2, 400 ppm chlorine dioxide over two hours, versus moist controls) was 1-2 logs, the “Log Reduction in Organism Count” value (mixed PA/MRSA biofilm; Sample 12, 10.0 min, 52 ppm ClO2, 520 ppm-min) was 5.5 log and the “Log Reduction in Organism Count” value (mixed PA/MRSA biofilm; Sample 13, 30.0 min, 52 ppm ClO2, 1560 ppm-min) was 7.4 log. For the same compound, the “Log Reduction in Organism Count” value (mixed PA/MRSA biofilm; Sample 14, 1.0 min, 181 ppm ClO2, 181 ppm-min) was 5.1 log, the “Log Reduction in Organism Count” value (mixed PA/MRSA biofilm; Sample 15, 5.0 min, 160 ppm ClO2, 800 ppm-min) was 7.4 log and the “Log Reduction in Organism Count” value (mixed PA/MRSA biofilm; Sample 16, 30.0 min, 160 ppm ClO2, 4800 ppm-min) was 7.4 log. The “dosage achieving a kill of about 5 orders of magnitude (5 log)” value (mixed PA/MRSA biofilm; mixed PA/MRSA biofilm, clean system (Sample 12)) was “greater than 200 ppm-min”.
